For experiment [1], the system named is choroidal neovascularization (CNV) at Bruch's membrane rupture sites. As to the kind of experiment: Mouse model of laser-induced choroidal neovascularization (rupture of Bruch's membrane), CNV area on choroidal flat mounts. It is filed as in vivo, C57BL/6J mice. The settings on record: for amount of established CNV on day 14 vs vehicle and day 7 baseline (regression): single periocular injection at day 7; for amount of CNV on day 14 vs vehicle (suppression): single periocular injection at time of rupture.

In experiment [2] the test system is retinal neovascularization. As to the kind of experiment: Oxygen-induced ischemic retinopathy, retinal neovascularization. Format: in vivo, neonatal C57BL/6 mice. The following applies: 100 μg CGC-11144, 1 mg CGC-11047, 750 μg CGC-11093; for amount of retinal neovascularization at P20 vs vehicle (regression): daily periocular injections P17 to P20; for amount of retinal neovascularization at P17 vs vehicle (suppression): periocular injection at P12. On the procedure:
Ischemic retinopathy can be produced in neonatal C57BL/6 mice as described (Smith, L. E et al., Invest. Opthalmol. Vis. Sci. 35: 101-111 (1994)) and serves as a model for retinopathy of prematurity (ROP). Post-natal day 7 (P7) mice and their mothers were placed in an airtight incubator and exposed to an atmosphere of 75±3% oxygen for 5 days. Incubator temperature was maintained at 23±2° C. and oxygen was continuously monitored with a PROOX model 110 oxygen controller (Reming Bioinstruments Co., Redfield, N.Y.). At post-natal day 12, mice were placed back in room air and were given a periocular injection of 3 μl containing 100 μg of CGC-11144 (n=4), 1 mg of CGC-11047 (n=4), 750 μg of CGC-11093 (n=4) or vehicle. On post-natal day 17 (P17) the treated and control mice were euthanized and the amount of retinal neovascularization was measured.
For measurement of retinal neovascularization, eyes were removed and fixed in 2% paraformaldehyde in phosphate buffered saline (PBS) for one hour and rinsed twice in 25% sucrose in PBS. Specimens were incubated in 25% sucrose in PBS overnight and embedded in OCT compound (Miles Diagnostics, Elkhart, Ind.),). 10 μm frozen sections were post-fixed for 15 minutes in 0.5% glutaraldehyde in PBS and washed in PBS. Sections were also histochemically stained with biotinylated Griffonia simplicifolia lectin B4 (GSA, Vector Laboratories, Burlingame, Calif.), which selectively binds to vascular cells. Slides were incubated in methanol/H2O2 for 10 minutes at 4° C., washed with 0.05 M Tris-buffered saline, pH 7.6 (TBS), and incubated for 30 minutes in 10% normal porcine serum. Slides were incubated 2 hours at room temperature with biotinylated GSA and after rinsing with 0.05M TBS, they were incubated with avidin coupled to peroxidase (Vector Laboratories, Burlingame, Calif.) for 30 minutes at room temperature. After being washed for 10 minutes with 0.05M TBS, slides were incubated with diaminobenzidine (Research Genetics, Huntsville, Ala.) to give a brown reaction product.
To perform quantitative assessments, 10 μm frozen serial sections were cut from the iris root on one side of the eye to the iris root on the opposite side of the eye and every tenth section was stained with GSA. Retinas were examined with an Axioskop microscope and images were digitized using a 3 CCD color video camera and a frame grabber. Image-Pro Plus software was used to delineate GSA-stained vascular cells above the internal limiting membrane and the total area of staining was measured.
To investigate the effect of these agents on regression of retinal neovascularization, ischemic retinopathy was induced and left untreated until P17, when the baseline amount of retinal neovascularization was measured in one group of mice. From post-natal days 17 to 20 (P17 to P20) the remainder of the mice were given daily periocular injections of 100 μg of CGC-11144 (n=4), 1 mg of CGC-11047 (n=4), 750 μg of CGC-11093 (n=4) or vehicle. On P20 the mice were euthanized and the amount of retinal neovascularization in the treated and control mice was measured as described above.

Experiment [3] deals with subretinal neovascularization. As to the kind of experiment: Rhodopsin/VEGF transgenic mice, subretinal neovascularization. Format: in vivo, rhodopsin/VEGF transgenic mice (V6 mice). The settings on record: periocular injection at P7, measured P21; 100 μg CGC-11144, 1 mg CGC-11047, 750 μg CGC-11093. The source says:
Transgenic mice (V6 mice) in which the rhodopsin promoter drives expression of VEGF165 in photoreceptors have onset of VEGF expression at post-natal day 7 (P7) and soon after begin to develop neovascularization originating from the deep capillary bed that grows through the photoreceptor layer into the subretinal space. (Okamoto N et al., Amer. J. Pathol. 151: 281-91 (1997); Tobe T et al., Invest. Ophthalmol. Vis. Sci. 39: 180-188 (1998)). Hemizygous transgene positive mice were given a periocular injection of 100 μg of CGC-11144 (n=3), 1 mg of CGC-11047 (n=3), 750 μg of CGC-11093 (n=3) or vehicle (n=7) at P7. At post-natal day 21 (P21), mice were euthanized and the amount of subretinal neovascularization was quantified as previously described (Tobe, ibid.). Briefly, mice were anesthetized, perfused with fluorescein-labeled dextran, and the number of neovascular lesions on the outer surface of the retina and their total area were measured on retinal flat mounts by image analysis as described in Example 1.

The mark [4] stands for this setting: 2 mg CGC-11047, 1.5 mg CGC-11093.
Setting [5] is: 200 μg CGC-11144, 2 mg CGC-11047, 1.5 mg CGC-11093.
Where [6] appears, read: single periocular injection one week prior to rupture, 200 μg CGC-11144, 2 mg CGC-11047, 1.5 mg CGC-11093.
[7] abbreviates: single periocular injection three weeks before laser, 2 mg CGC-11047, 1.5 mg CGC-11093.
Where [8] appears, read: single periocular injection two weeks prior to rupture, 200 μg CGC-11144, 2 mg CGC-11047, 1.5 mg CGC-11093.

“Also recorded” adds a separate entry of the source.

For the compound `CCNCCCCNCC1CC1CNCCCCNCC` (centres unmarked) [CGC-11093], the “amount of established CNV on day 14 vs vehicle and day 7 baseline (regression)” value in experiment [1] (setting [4]) is “less CNV than those treated with vehicle and less than the baseline amount of CNV”. Moreover, the “amount of CNV on day 14 vs vehicle (suppression)” value in experiment [1] (setting [5]) is given as “significantly reduced the amount of CNV”. In addition, the “amount of CNV vs vehicle (duration of effect)” value in experiment [1] (setting [6]) was “significant reduction of the amount of CNV”; in experiment [1] (setting [7]), “no significant effect”; in experiment [1] (setting [8]), “significantly smaller amounts of CNV”. Further, the “amount of retinal neovascularization at P20 vs vehicle (regression)” value in experiment [2] is “significantly less neovascularization”. Moreover, the “amount of retinal neovascularization at P17 vs vehicle (suppression)” value in experiment [2] is “significantly less”. Also, the “subretinal neovascularization vs vehicle” value in experiment [3] is given as “significantly less subretinal neovascularization”.

Regarding `CCNCCCNC/C=C\CNCCCNCC` [CGC-11047], in experiment [1] (setting [4]), the “amount of established CNV on day 14 vs vehicle and day 7 baseline (regression)” value was “less CNV than those treated with vehicle and less than the baseline amount of CNV”. The “amount of CNV on day 14 vs vehicle (suppression)” value in experiment [1] (setting [5]) is “significantly reduced the amount of CNV”. The “amount of CNV vs vehicle (duration of effect)” value is on record as “significant reduction of the amount of CNV” in experiment [1] (setting [6]), “no significant effect” in experiment [1] (setting [7]) and “significantly smaller amounts of CNV” in experiment [1] (setting [8]). Further, the “amount of retinal neovascularization at P20 vs vehicle (regression)” value in experiment [2] is reported as “significantly less neovascularization”. The “amount of retinal neovascularization at P17 vs vehicle (suppression)” value in experiment [2] is listed as “significantly less”. The “subretinal neovascularization vs vehicle” value in experiment [3] is “significantly less subretinal neovascularization”.

With `NCCCC(N)(C(=O)O)C(F)F` (racemic) [DFMO, D,L-α-difluoromethyl-omithine, reference compound], the “area of CNV vs day 7 baseline and vehicle fellow eyes (regression)” value in experiment [1] (daily periocular injections days 7 to 14, 200 μg CGC-11144, 100 μg DFMO, or both) is listed as “significant reduction in the area of CNV; also recorded: significantly less”.

For the origin of these results see US20060160906A1, “Polyamine analogs as therapeutic agents for ocular diseases” (priority 2004, published 2006).
